According to DBAASP:
Converted amounts (≈) assume the structure as drawn. “And” between values parts separate entries of the source, which are not always exact repeats. Identical values can stand only once.

Columns and labels:
Assay in all cases: ≥ marks a high value that may be exact or a test limit, other limits are often not marked, values filed in µg/mL are converted to µM
Escherichia coli = tested on: Escherichia coli
[1] = tested on: Candida albicans ATCC 64550
[2] = tested on: Staphylococcus aureus ATCC 25923
Escherichia coli W160-37 = tested on: Escherichia coli W160-37
Staphylococcus aureus = tested on: Staphylococcus aureus
[3] = tested on: Candida albicans ATCC 90028
[4] = tested on: Pseudomonas aeruginosa ATCC 27853
[5] = tested on: Candida parapsilosis ATCC 22019
[6] = tested on: Salmonella enterica subsp. enterica serovar Enteritidis
[7] = tested on: Escherichia coli ATCC 25922
Listeria ivanovii = tested on: Listeria ivanovii
[8] = tested on: Enterococcus faecalis ATCC 29212
Saccharomyces cerevisiae = tested on: Saccharomyces cerevisiae
Escherichia coli ML-35p = tested on: Escherichia coli ML-35p
[9] = tested on: Klebsiella pneumoniae ATCC 13883
[10] = tested on: Staphylococcus aureus ST1065
[11] = tested on: Acinetobacter baumannii ATCC 19606
[12] = tested on: Streptococcus pyogenes ATCC 19615
[13] = tested on: Staphylococcus aureus ATCC 29213
[14] = tested on: Candida albicans ATCC 37092
[15] = tested on: Staphylococcus aureus USA 300
[16] = tested on: Pseudomonas aeruginosa H103
[17] = tested on: Staphylococcus epidermidis
[18] = tested on: Salmonella enterica serovar Typhimurium
Candida albicans = tested on: Candida albicans
[19] = tested on: Pseudomonas aeruginosa ATCC 9027
Escherichia coli UB1005 = tested on: Escherichia coli UB1005
[20] = tested on: Staphylococcus aureus USA 100
[21] = tested on: Arthrobacter globiformis VKM Ac-1112
[22] = tested on: Escherichia coli DH5alpha
[23] = tested on: Bacillus subtilis VKM B-501
[24] = tested on: Pseudomonas aeruginosa PAO1
[25] = tested on: Saccharomyces cerevisiae Y190
Escherichia coli MH1 = tested on: Escherichia coli MH1

## NCCCC[C@H](NC(=O)[C@H](CCCCN)NC(=O)[C@H](CCCN=C(N)N)NC(=O)[C@H](CCCN=C(N)N)NC(=O)[C@H](Cc1c[nH]c2ccccc12)NC(=O)[C@H](Cc1c[nH]c2ccccc12)NC(=O)[C@H](CCCN=C(N)N)NC(=O)[C@H](CCCCN)NC(=O)[C@H](Cc1c[nH]c2ccccc12)NC(=O)[C@@H](N)CCCN=C(N)N)C(N)=O [RWKRWWRRKK]
Escherichia coli
  MIC: 3 µM (≈ 4.75 µg/mL)
[1]
  MIC: ≥ 100 µM
[2]
  MIC: 3 µM and 6 µM

## CC[C@H](C)[C@H](N)C(=O)N[C@@H](CC(C)C)C(=O)N1CCC[C@H]1C(=O)N[C@@H](CC(C)C)C(=O)N[C@@H](CCCCN)C(=O)N[C@@H](CC(C)C)C(=O)N1CCC[C@H]1C(=O)N[C@@H](CC(C)C)C(=O)N[C@@H](CC(C)C)C(=O)N1CCC[C@H]1C(=O)N[C@@H](Cc1c[nH]c2ccccc12)C(=O)N[C@@H](CCCN=C(N)N)C(=O)N[C@@H](CCCN=C(N)N)C(N)=O [ILPLKLPLLPWRR]
Escherichia coli W160-37
  MIC: 12.4 µM (≈ 20 µg/mL)
Staphylococcus aureus
  MIC: 3.1 µM (≈ 5 µg/mL)

## CC[C@H](C)[C@H](NC(=O)CNC(=O)[C@@H](N)CCCCN)C(=O)N[C@H](C(=O)NCC(=O)N[C@@H](CCSC)C(=O)N[C@@H](CC(C)C)C(=O)NCC(=O)N[C@@H](CCCCN)C(=O)N[C@@H](CC(C)C)C(=O)N[C@@H](Cc1ccccc1)C(N)=O)C(C)C [KGIVGMLGKLF]
[3]
  MIC: 12 µM (≈ 13.9 µg/mL)
[4]
  MIC: 25 µM (≈ 29 µg/mL)
[5]
  MIC: ≥ 50 µM
[6]
  MIC: ≥ 100 µM
[7]
  MIC: 30 µM (≈ 34.8 µg/mL)
Listeria ivanovii
  MIC: 12 µM (≈ 13.9 µg/mL)
[8]
  MIC: > 200 µM
Saccharomyces cerevisiae
  MIC: 12 µM (≈ 13.9 µg/mL)
Escherichia coli ML-35p
  MIC: 25 µM (≈ 29 µg/mL)
[2]
  MIC: 40 µM (≈ 46.5 µg/mL)
[9]
  MIC: ≥ 100 µM
[10]
  MIC: ≥ 40 µM
[11]
  MIC: 50 µM (≈ 58.1 µg/mL)
[12]
  MIC: ≥ 50 µM

## CC[C@H](C)[C@H](NC(=O)[C@@H]1CCCN1C(=O)[C@H](CCCN=C(N)N)NC(=O)[C@@H]1CCCN1C(=O)CNC(=O)[C@@H]1CCCN1C(=O)[C@H](CCCN=C(N)N)NC(=O)[C@@H]1CCCN1C(=O)[C@H](Cc1ccccc1)NC(=O)[C@@H]1CCCN1C(=O)[C@H](CC(C)C)NC(=O)[C@@H]1CCCN1C(=O)[C@H](CCCN=C(N)N)NC(=O)[C@@H]1CCCN1C(=O)[C@@H](NC(=O)[C@@H]1CCCN1C(=O)[C@H](CCCN=C(N)N)NC(=O)[C@@H]1CCCN1C(=O)CNC(=O)[C@@H]1CCCN1C(=O)[C@H](CCCN=C(N)N)NC(=O)[C@@H]1CCCN1C(=O)[C@H](Cc1ccccc1)NC(=O)[C@@H]1CCCN1C(=O)[C@H](CC(C)C)NC(=O)[C@@H]1CCCN1)[C@@H](C)CC)C(=O)N1CCC[C@H]1C(=O)N[C@@H](CCCN=C(N)N)C(=O)N1CCC[C@H]1C(=O)O [PLPFPRPGPRPIPRPLPFPRPGPRPIPRP]
[7]
  MIC: 5.84 µM (≈ 19.1 µg/mL)
[13]
  MIC: 30.5 µM (≈ 99.8 µg/mL)
[14]
  MIC: 0.5 µM (≈ 1.64 µg/mL)

## CC[C@H](C)[C@H](NC(=O)CNC(=O)[C@H](CCCCN)NC(=O)[C@H](C)NC(=O)[C@@H](N)Cc1ccccc1)C(=O)N[C@@H](C)C(=O)NCC(=O)N[C@@H](CCSC)C(=O)N[C@@H](C)C(=O)NCC(=O)N[C@@H](CCCCN)C(=O)N[C@@H](CC(C)C)C(=O)N[C@@H](Cc1ccccc1)C(N)=O [FAKGIAGMAGKLF]
[3]
  MIC: ≥ 200 µM
[4]
  MIC: > 200 µM
[5]
  MIC: ≥ 200 µM
[6]
  MIC: ≥ 200 µM
[7]
  MIC: > 200 µM
Listeria ivanovii
  MIC: ≥ 200 µM
[8]
  MIC: > 200 µM
Saccharomyces cerevisiae
  MIC: ≥ 200 µM
Escherichia coli ML-35p
  MIC: ≥ 200 µM
[2]
  MIC: > 200 µM
[9]
  MIC: ≥ 200 µM
[10]
  MIC: ≥ 200 µM
[11]
  MIC: > 200 µM
[12]
  MIC: ≥ 100 µM

## CC[C@H](C)[C@H](NC(=O)[C@H](CCCN=C(N)N)NC(=O)[C@@H](N)CCCN=C(N)N)C(=O)N[C@@H](CCCN=C(N)N)C(=O)N1CCC[C@H]1C(=O)N[C@@H](CCCN=C(N)N)C(=O)N1CCC[C@H]1C(=O)N1CCC[C@H]1C(=O)N[C@@H](CCCN=C(N)N)C(=O)N[C@@H](CC(C)C)C(=O)N1CCC[C@H]1C(=O)N[C@@H](CCCN=C(N)N)C(=O)N1CCC[C@H]1C(=O)N[C@@H](CCCN=C(N)N)C(=O)N1CCC[C@H]1C(=O)N[C@@H](CCCN=C(N)N)C(=O)N1CCC[C@H]1C(=O)O [RRIRPRPPRLPRPRPRP]
[7]
  MIC: 0.89 µM (≈ 1.93 µg/mL)
[13]
  MIC: 0.81 µM (≈ 1.76 µg/mL)
[14]
  MIC: 1.05 µM (≈ 2.28 µg/mL)

## CC[C@H](C)[C@H](NC(=O)[C@H](Cc1c[nH]c2ccccc12)NC(=O)[C@H](CCCCN)NC(=O)[C@H](CCCCN)NC(=O)[C@H](CC(C)C)NC(=O)[C@H](Cc1ccccc1)NC(=O)[C@H](CCCCN)NC(=O)[C@H](CCCCN)NC(=O)[C@H](CC(C)C)NC(=O)[C@H](CC(C)C)NC(=O)[C@H](CCCCN)NC(=O)[C@@H]1CCCN1)C(=O)NCC(=O)O [PKLLKKFLKKWIG]
Escherichia coli W160-37
  MIC: 24 µM (≈ 38.4 µg/mL)
Staphylococcus aureus
  MIC: 13 µM (≈ 20.8 µg/mL)

## CC[C@H](C)[C@H](NC(=O)[C@@H](NC(=O)[C@H](Cc1c[nH]c2ccccc12)NC(=O)[C@@H](NC(=O)[C@@H](N)CCCN=C(N)N)[C@@H](C)CC)C(C)C)C(=O)N[C@@H](CCCN=C(N)N)C(=O)N[C@@H](Cc1c[nH]c2ccccc12)C(=O)N[C@@H](CCCN=C(N)N)C(N)=O [RIWVIRWR]
[15]
  MIC: 12.5 µM (≈ 14.8 µg/mL)
[3]
  MIC: ≥ 100 µM
[16]
  MIC: 13.5 µM (≈ 16 µg/mL)
[8]
  MIC: 6.75 µM (≈ 7.99 µg/mL)
[17]
  MIC: 3.38 µM (≈ 4 µg/mL)
[18]
  MIC: 13.5 µM (≈ 16 µg/mL)
Candida albicans
  MIC: 13.5 µM (≈ 16 µg/mL)
[19]
  MIC: 25 µM (≈ 29.6 µg/mL)
Escherichia coli UB1005
  MIC: 3.38 µM (≈ 4 µg/mL)
[2]
  MIC: 3.38 µM (≈ 4 µg/mL)
[20]
  MIC: 12.5 µM (≈ 14.8 µg/mL)

## CC[C@H](C)[C@H](NC(=O)[C@H](Cc1ccc(O)cc1)NC(=O)[C@H](CCC(N)=O)NC(=O)[C@H](CCCCN)NC(=O)[C@H](CC(C)C)NC(=O)[C@H](CCCCN)NC(=O)[C@H](CCC(=O)O)NC(=O)CNC(=O)[C@H](CCSC)NC(=O)[C@H](CO)NC(=O)[C@H](CCCCN)NC(=O)[C@@H](NC(=O)[C@H](CCCCN)NC(=O)[C@H](CC(=O)O)NC(=O)[C@H](CCCCN)NC(=O)[C@H](CC(C)C)NC(=O)[C@@H](N)CO)C(C)C)C(=O)N[C@@H](CCC(N)=O)C(=O)N[C@H](C(=O)N[C@@H](Cc1c[nH]c2ccccc12)C(=O)N[C@@H](CCCCN)C(=O)N[C@@H](C)C(=O)N[C@@H](CCCCN)C(=O)N[C@@H](Cc1ccccc1)C(N)=O)[C@@H](C)O [SLKDKVKSMGEKLKQYIQTWKAKF]
[21]
  MIC: 0.3 µM (≈ 0.865 µg/mL)
[22]
  MIC: 4.4 µM (≈ 12.7 µg/mL)
[23]
  MIC: 1.1 µM (≈ 3.17 µg/mL)
[24]
  MIC: > 35 µM
[25]
  MIC: ≥ 35 µM
Escherichia coli MH1
  MIC: 4.4 µM (≈ 12.7 µg/mL)
